For assay [1], the target named is T1, Organic anion transporter 3 (Homo sapiens, UniProt Q8TCC7).
T1 sequence (Q8TCC7 whole entry): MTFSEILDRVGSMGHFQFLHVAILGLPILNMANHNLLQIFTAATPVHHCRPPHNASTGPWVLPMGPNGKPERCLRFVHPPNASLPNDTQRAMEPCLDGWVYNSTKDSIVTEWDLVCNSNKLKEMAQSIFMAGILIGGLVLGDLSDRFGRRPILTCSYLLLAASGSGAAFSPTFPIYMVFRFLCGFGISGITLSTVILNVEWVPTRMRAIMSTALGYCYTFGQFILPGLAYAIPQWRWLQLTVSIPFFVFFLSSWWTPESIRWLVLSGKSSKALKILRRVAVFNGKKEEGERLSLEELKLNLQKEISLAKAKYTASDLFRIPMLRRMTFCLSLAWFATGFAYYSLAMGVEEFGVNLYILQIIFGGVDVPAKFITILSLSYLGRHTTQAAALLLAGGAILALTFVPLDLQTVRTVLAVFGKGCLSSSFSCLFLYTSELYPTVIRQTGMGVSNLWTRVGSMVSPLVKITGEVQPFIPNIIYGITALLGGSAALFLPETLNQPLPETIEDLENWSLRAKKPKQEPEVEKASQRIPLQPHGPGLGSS
In words: TP_TRANSPORTER: inhibition of E1S uptake in OAT3 expressing oocytes.

Assay [2] deals with T2, Solute carrier family 22 member 2 (Homo sapiens, UniProt O15244).
T2 sequence (O15244 whole entry): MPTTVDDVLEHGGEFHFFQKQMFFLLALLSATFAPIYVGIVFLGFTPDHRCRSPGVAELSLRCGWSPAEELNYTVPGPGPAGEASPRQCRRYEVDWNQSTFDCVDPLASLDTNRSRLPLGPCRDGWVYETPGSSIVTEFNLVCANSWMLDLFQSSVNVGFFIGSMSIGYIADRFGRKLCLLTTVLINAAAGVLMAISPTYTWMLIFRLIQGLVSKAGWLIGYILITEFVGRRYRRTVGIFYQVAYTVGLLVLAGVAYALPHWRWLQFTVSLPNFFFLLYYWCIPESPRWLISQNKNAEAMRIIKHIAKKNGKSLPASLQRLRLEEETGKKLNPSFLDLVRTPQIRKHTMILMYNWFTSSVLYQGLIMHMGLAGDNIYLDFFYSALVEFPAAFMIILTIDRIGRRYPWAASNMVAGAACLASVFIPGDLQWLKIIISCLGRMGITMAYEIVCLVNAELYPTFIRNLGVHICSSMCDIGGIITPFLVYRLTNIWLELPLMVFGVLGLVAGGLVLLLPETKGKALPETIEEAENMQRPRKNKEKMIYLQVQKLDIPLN
Nature of the assay: TP_TRANSPORTER: inhibition of TEA uptake in OCT2 expressing oocytes.

One may read the Ki as the equilibrium dissociation constant of an inhibitor or competing ligand from its target. A high value points to lower affinity.

SMILES strings stand for the structures.

Consider `CN/C(=N/CCSCc1nc[nH]c1C)NC#N` [CIMETIDINE], for which the inhibition constant Ki is 53 µM in assay [1] and 57 µM in assay [2].
With `NC(N)=Nc1nc(CSCCC(N)=NS(N)(=O)=O)cs1` [FAMOTIDINE], the inhibition constant (Ki) amounted to 300 µM in assay [1] and 1800 µM in assay [2].
